Consider eight molecules from patent US20040106545A1, “Compounds and methods for modulating cell adhesion” (priority 1996, published 2004).

Broadly, the IC50 is the concentration at which inhibition is half-maximal. A low value points to greater potency. The term inhibition denotes the percentage by which the read-out fell short of the control.

In data set [1] the test system is MDA-MB231. Format: cell-based, human. Particulars: 3 h. As to the method:
(§1) N—Ac-CHAVC-NH2 (SEQ ID NO:10) and the control peptide N—Ac-CHGVC-NH2 (SEQ ID NO:11) were evaluated for possible cytotoxic effects on human microvascular endothelial (HMVEC; Clonetics), human umbilical vein endothelial (HUVEC; ATCC #CRL-1730), IAFp2 (human fibroblast cell line; Institute Armand-Frapier, Montreal, Quebec), WI-38 (human fibroblast cell line; ATCC #CCL-75), MDA-MB231 (human breast cancer cell line; ATCC #HTB-26), and PC-3 (human prostate cancer cell line; ATCC #CRL-1435) cells utilizing the MTT assay (Plumb et al., Cancer Res. 49:4435-4440, 1989). Neither of the peptides was cytotoxic at concentrations up to and including 100 μM. Similarly, neither of the peptides was capable of inhibiting the proliferation of the above cell lines at concentrations up to 100 μM, as judged by ^3H-thymidine incorporation assays.

For the next data set, the system named is WI-38. The class given is cell-based, human. Conditions: 3 h. As to the method:
as §1

In data set [2] the test system is PC-3. The class given is cell-based, human. Conditions: 3 h. As to the method: as §1
The subject of the next data set is HUVEC. The class given is cell-based, human. Particulars: 3 h. As to the method: as §1
The subject of the next data set is IAFp2. The class given is cell-based, human. Particulars: 3 h. As to the method: as §1
For the next data set, the system named is HMVEC. Format: cell-based, human. Particulars: 3 h. As to the method: as §1
The target of a further data set is T1, N-cadherin (Gallus gallus, UniProt P10288).
T1 construct: expressed in transfected cells; host or cells: 3T3 fibroblasts (monolayer)
T1 sequence (P10288 165-912): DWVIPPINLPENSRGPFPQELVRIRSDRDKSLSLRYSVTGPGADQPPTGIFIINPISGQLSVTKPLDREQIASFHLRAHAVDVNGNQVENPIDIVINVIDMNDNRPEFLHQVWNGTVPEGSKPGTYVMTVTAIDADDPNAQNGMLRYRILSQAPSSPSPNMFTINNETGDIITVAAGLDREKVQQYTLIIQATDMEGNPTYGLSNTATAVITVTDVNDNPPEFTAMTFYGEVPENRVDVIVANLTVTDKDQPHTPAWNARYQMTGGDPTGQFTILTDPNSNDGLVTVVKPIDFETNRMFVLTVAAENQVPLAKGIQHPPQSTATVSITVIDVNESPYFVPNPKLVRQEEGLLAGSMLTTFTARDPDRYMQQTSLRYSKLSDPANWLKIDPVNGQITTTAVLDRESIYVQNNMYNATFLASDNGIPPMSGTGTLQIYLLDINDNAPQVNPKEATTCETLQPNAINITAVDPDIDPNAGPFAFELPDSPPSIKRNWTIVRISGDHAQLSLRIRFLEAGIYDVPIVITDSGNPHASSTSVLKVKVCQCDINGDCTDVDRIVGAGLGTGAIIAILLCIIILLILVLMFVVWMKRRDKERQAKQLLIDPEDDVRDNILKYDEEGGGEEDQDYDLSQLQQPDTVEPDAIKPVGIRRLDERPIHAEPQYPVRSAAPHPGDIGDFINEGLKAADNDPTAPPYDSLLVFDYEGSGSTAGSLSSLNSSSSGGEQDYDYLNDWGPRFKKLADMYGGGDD
Put plainly: Neurite outgrowth inhibition, rat neurons (Example 21). The class given is cell-based. Conditions: read-out: % Inhibition of neurite outgrowth; 250 μg/mL.

The test system of data set [3] is PC-3. Description: Cytotoxicity, MTT assay, PC-3. The class given is cell-based, human. As to the method:
as §1

Data set [4] deals with MDA-MB231. Description: Cytotoxicity, MTT assay, MDA-MB231. Format: cell-based, human. As to the method: as §1
On the technique in general: Formazan colour is commonly taken as a measure of viable cells.

The target of another data set is T2, chick N-cadherin (Gallus gallus, UniProt P10288).
T2 construct: expressed in transfected cells; host or cells: 3T3 fibroblasts (monolayer); rat post-natal day 2-3 cerebellar neurons plated on top
T2 sequence (P10288 165-912): T1 sequence (P10288 165-912)
Put plainly: Neurite outgrowth of rat cerebellar neurons on N-cadherin expressing 3T3 monolayers (Example 15). The class given is cell-based. Conditions: Tables 8 and 9. As to the method: Cell culture and neurite outgrowth assays. Co-cultures of cerebellar neurons on monolayers of control 3T3 cells and monolayers of transfected 3T3 cells that express physiological levels of chick N-cadherin or human L1 were established as previously described (Williams et al., Neuron 13:583-594, 1994). In brief, 80,000 3T3 cells (control and transfected) were plated into individual chambers of an eight-chamber tissue culture slide coated with polylysine and fibronectin and cultured in DMEM/10% FCS. After 24 hours, when confluent monolayers had formed, the medium was removed and 3000 cerebellar neurons isolated from post-natal day 2-3 rats were plated into each well in SATO media (Doherty et al., Nature 343:464-466, 1990) supplemented with 2% FCS. All of the test peptides were added immediately before the neurons as a 2× stock prepared in SATO/2% FCS. The co-cultures were maintained for 16-18 hours, at which time they were fixed and immunostained for GAP-43 which is present only in the neurons and delineates the neuritic processes. The mean length of the longest neurite per cell was measured for 150-200 neurons sampled in replicate cultures as previously described (Williams et al., Neuron 13:583-594, 1994). […] Dose-response curves were evaluated and the EC50 values determined.

Data set [5] has as its system chick embryonic chorioallantoic membranes. Put plainly: Chick chorioallantoic membrane angiogenesis assay. Conditions: for Percent Inhibition of Angiogenesis: 24 hours. The class given is in vivo. As to the method: Another cell adhesion assay evaluates the ability of a modulating agent to block angiogenesis (the growth of blood vessels from pre-existing blood vessels). This ability may be assayed using the chick chorioallantoic membrane assay described by Iruela-Arispe et al., Molecular Biology of the Cell 6:327-343, 1995. Briefly, a modulating agent may be embedded in a mesh composed of vitrogen at one or more concentrations (e.g., ranging from about 1 to 100 μg/mesh). The mesh(es) may then be applied to chick chorioallantoic membranes. After 24 hours, the effect of the peptide may be determined using computer assisted morphometric analysis. A modulating agent should inhibit angiogenesis by at least 25% at a concentration of 33 μg/mesh.
The chick chorioallantoic membrane assay was used to assess the effects of cyclic peptides on angiogenesis (Iruela-Arispe et al., Molecular Biology of the Cell 6:327-343, 1995). Cyclic peptides were embedded in a mesh composed of vitrogen at concentrations of 3, 17, and 33 μg/mesh. The meshes were then applied to 12-day-old chick embryonic chorioallantoic membranes. After 24 hours, the effects of the peptides on angiogenesis were assessed by computer assisted morphometric analysis.

Like-named read-outs stand apart in the source and are kept apart here. Positions of bridges follow the written chain, without caps; N, C: chain ends. Residues, ends and D or L forms follow the SMILES beside them.

`CC(=O)N[C@H]1CSSC[C@@H](C(N)=O)NC(=O)[C@H](CO)NC(=O)[C@H](CO)NC(=O)[C@H](C(C)C)NC(=O)CNC(=O)[C@H](Cc2c[nH]cn2)NC(=O)[C@H](CO)NC1=O` (Ac-CSHGVSSC-NH2; disulfide 1-8): the IC50 with MDA-MB231 [1], in the data set with WI-38, in the data set with PC-3 [2], with HUVEC, with IAFp2 and with HMVEC was above 100 µM each time. Besides, the IC50 in the data set with PC-3 [3] and with MDA-MB231 [4] was above 100 µM in each case. Moreover, the inhibition at 250 µg/mL on N-cadherin was found to be 0%.
With `CC[C@H](C)[C@@H]1NC(=O)[C@H](CC(=O)O)NC(=O)[C@H](C(C)C)NC(=O)[C@H](C)NC(=O)[C@H](Cc2c[nH]cn2)NC(=O)[C@H](C)NC(=O)[C@@H](N)CSSC[C@@H](C(N)=O)NC1=O` (H-CAHAVDIC-NH2; disulfide 1-8), the IC50 in the data set with MDA-MB231 [1], with WI-38, in the data set with PC-3 [2], with HUVEC, in the data set with IAFp2 and in the data set with HMVEC was above 100 µM in each case. Besides, the IC50 with PC-3 [3] and in the data set with MDA-MB231 [4] was above 100 µM throughout. Further, on N-cadherin, the inhibition at 250 µg/mL was 0%. Moreover, the “inhibitory activity on N-cadherin dependent neurite outgrowth, structure/activity statements” value is on record as “total loss of activity” at chick N-cadherin (listed as H-CAHAVDIC-NH2) and “lost activity” against chick N-cadherin (listed as compound 15).
As for `CC[C@H](C)[C@@H]1NC(=O)[C@H](CC(=O)O)NC(=O)[C@H](C(C)C)NC(=O)CNC(=O)[C@H](Cc2c[nH]cn2)NC(=O)[C@H](C)NC(=O)[C@@H](N)CSSC[C@@H](C(N)=O)NC1=O` (H-CAHGVDIC-NH2; disulfide 1-8), the IC50 in the data set with MDA-MB231 [1], with WI-38, with PC-3 [2], in the data set on HUVEC, in the data set with IAFp2 and in the data set with HMVEC was above 100 µM in each case. Besides, the IC50 with PC-3 [3] and in the data set on MDA-MB231 [4] was above 100 µM each time. In addition, the inhibition at 250 µg/mL at N-cadherin stood at 0%.
Turning to `CC(C)[C@@H]1NC(=O)[C@H](C)NC(=O)[C@H](Cc2c[nH]cn2)NC(=O)[C@H](C)NC(=O)[C@@H](N)CSSC[C@@H](C(N)=O)NC(=O)[C@H](CC(=O)O)NC1=O` [H—CAHAVDC—NH2, H-Cys-Ala-His-Ala-Val-Asp-Cys-NH2] (H-CAHAVDC-NH2; disulfide 1-7), the IC50 with MDA-MB231 [1], with WI-38, with PC-3 [2], with HUVEC, with IAFp2 and in the data set with HMVEC was above 100 µM each time. Besides, the IC50 with PC-3 [3] and in the data set on MDA-MB231 [4] was above 100 µM throughout. For the same molecule, the inhibition at 250 µg/mL at N-cadherin was found to be 0%.
Turning to `CC(C)[C@@H]1NC(=O)CNC(=O)[C@H](Cc2c[nH]cn2)NC(=O)[C@H](C)NC(=O)[C@@H](N)CSSC[C@@H](C(N)=O)NC(=O)[C@H](CC(=O)O)NC1=O` [H—CAHGVDC—NH2] (H-CAHGVDC-NH2; disulfide 1-7), the IC50 in the data set with MDA-MB231 [1], with WI-38, in the data set with PC-3 [2], with HUVEC, in the data set with IAFp2 and in the data set on HMVEC was above 100 µM in each case. Moreover, the IC50 with PC-3 [3] and in the data set with MDA-MB231 [4] was above 100 µM each time. Also, the inhibition at 250 µg/mL on N-cadherin came out at 0%.
As to `CC(=O)N[C@H]1CSSC[C@@H](C(N)=O)NC(=O)[C@H](CO)NC(=O)[C@H](C(C)C)NC(=O)CNC(=O)[C@H](Cc2c[nH]cn2)NC1=O` [N—Ac—CHGVSC—NH2] (Ac-CHGVSC-NH2; disulfide 1-6), the IC50 in the data set on MDA-MB231 [1] is above 100 µM; in the data set on WI-38, above 100 µM; in the data set with PC-3 [2], above 100 µM; with HUVEC, 42 µM; in the data set with IAFp2, above 100 µM; in the data set on HMVEC, above 100 µM. Also, the IC50 with PC-3 [3] and in the data set on MDA-MB231 [4] was above 100 µM throughout. The inhibition at 250 µg/mL on N-cadherin came to 0%.
With `CC(=O)N[C@H]1CSSC[C@@H](C(N)=O)NC(=O)[C@H](C(C)C)NC(=O)CNC(=O)[C@H](Cc2c[nH]cn2)NC(=O)[C@H](CO)NC1=O` [N—Ac—CSHGVC—NH2] (Ac-CSHGVC-NH2; disulfide 1-6), the IC50 in the data set on MDA-MB231 [1], in the data set with WI-38, in the data set on PC-3 [2], in the data set on HUVEC, with IAFp2 and in the data set on HMVEC was above 100 µM each time. The IC50 in the data set with PC-3 [3] and in the data set with MDA-MB231 [4] was above 100 µM each time. Also, the inhibition at 250 µg/mL at N-cadherin was determined as 0%.
Consider `CC(=O)N[C@H]1CSSC[C@@H](C(N)=O)NC(=O)[C@H](Cc2c[nH]cn2)NC(=O)[C@H](C)NC(=O)[C@H](C(C)C)NC1=O` [N—Ac—CVAHC—NH2] (Ac-CVAHC-NH2; disulfide 1-5), for which the IC50 in the data set with MDA-MB231 [1] was above 100 µM; in the data set on WI-38, above 100 µM; in the data set on PC-3 [2] it was above 100 µM; with HUVEC, 8 µM; in the data set with IAFp2, above 100 µM; in the data set on HMVEC, above 100 µM. Further, the IC50 in the data set with PC-3 [3] and with MDA-MB231 [4] was above 100 µM throughout. Moreover, the “Percent Inhibition of Angiogenesis” value is reported as −1%^ in data set [5] (3 μg/mesh, absence (−) of 0.01 mM VEGF); 7% in [5] (3 μg/mesh, presence (+) of 0.01 mM VEGF); 13% in data set [5] (17 μg/mesh, absence (−) of 0.01 mM VEGF); 24% in data set [5] (17 μg/mesh, presence (+) of 0.01 mM VEGF); 12% in [5] (33 μg/mesh, absence (−) of 0.01 mM VEGF); 25% in data set [5] (33 μg/mesh, presence (+) of 0.01 mM VEGF). Further, the “inhibition of angiogenesis (in words)” value in [5] (3, 17 and 33 μg/mesh) was “relatively inactive”.
